The source made the active and inactive calls. The rule behind the calls is not given here.
Columns and labels:
Quadruplex DNA [1] = assay: Binding affinity to human G-quadruplex telomeric DNA F21T (5'-duplex FAM-GGGTTAGGGTTAGGGTTAGGG-TAM-3') assessed as stabilization by measuring change in melting temperature at 5 uM by FRET melting assay; type: nucleic-acid assay
Quadruplex DNA [2] = assay: Binding affinity to human G-quadruplex telomeric DNA F25CebT (5'-duplex FAM-AGGGTGGGTGTAAGTGTGGGTGGGT-TAM-3') assessed as stabilization by measuring change in melting temperature at 5 uM by FRET melting assay; type: nucleic-acid assay
A549 = assay: Antiproliferative activity against human A549 cells assessed as cell viability at 10 uM after 48 hrs by MTT assay; type: functional; settings: for viability at 10 µM: read-out: Activity
NCI-H1299 = assay: Antiproliferative activity against human NCI-H1299 cells assessed as cell viability at 10 uM after 48 hrs by MTT assay; type: functional
Quadruplex DNA [3] = assay: Binding affinity to human G-quadruplex telomeric DNA F21CTAT (5'-duplex FAM-GGGCTAGGGCTAGGGCTAGGG-TAM-3') assessed as stabilization by measuring change in melting temperature at 5 uM by FRET melting assay; type: nucleic-acid assay
Quadruplex DNA [4] = assay: Binding affinity to G-quadruplex telomeric DNA 22AG (5'-duplex AGGGTTAGGGTTAGGGTTAGGG-3') (unknown origin) assessed as stabilization by measuring change in melting temperature at 0.5 M by circular dichroism (CD) spectroscopy; type: nucleic-acid assay
Quadruplex DNA [5] = assay: Binding affinity to G-quadruplex telomeric DNA 22AG (5'-duplex AGGGTTAGGGTTAGGGTTAGGG-3') (unknown origin) assessed as stabilization by measuring change in melting temperature at 1 M by circular dichroism (CD) spectroscopy; type: nucleic-acid assay
Quadruplex DNA [6] = assay: Binding affinity to G-quadruplex telomeric DNA 22AG (5'-duplex AGGGTTAGGGTTAGGGTTAGGG-3') (unknown origin) assessed as stabilization by measuring change in melting temperature at 3 M by circular dichroism (CD) spectroscopy; type: nucleic-acid assay
Quadruplex DNA [7] = assay: Binding affinity to G-quadruplex telomeric DNA 22AG (5'-duplex AGGGTTAGGGTTAGGGTTAGGG-3') (unknown origin) assessed as stabilization by measuring change in melting temperature at 5 M by circular dichroism (CD) spectroscopy; type: nucleic-acid assay
Quadruplex DNA [8] = assay: Binding affinity to G-quadruplex telomeric DNA 22CTA (5'-duplex AGGGCTAGGGCTAGGGCTAGGG-3') (unknown origin) assessed as stabilization by measuring change in melting temperature at 0.5 M by circular dichroism (CD) spectroscopy; type: nucleic-acid assay
Quadruplex DNA [9] = assay: Binding affinity to G-quadruplex telomeric DNA 22CTA (5'-duplex AGGGCTAGGGCTAGGGCTAGGG-3') (unknown origin) assessed as stabilization by measuring change in melting temperature at 1 M by circular dichroism (CD) spectroscopy; type: nucleic-acid assay
Quadruplex DNA [10] = assay: Binding affinity to G-quadruplex telomeric DNA 22CTA (5'-duplex AGGGCTAGGGCTAGGGCTAGGG-3') (unknown origin) assessed as stabilization by measuring change in melting temperature at 3 M by circular dichroism (CD) spectroscopy; type: nucleic-acid assay
Quadruplex DNA [11] = assay: Binding affinity to G-quadruplex telomeric DNA 22CTA (5'-duplex AGGGCTAGGGCTAGGGCTAGGG-3') (unknown origin) assessed as stabilization by measuring change in melting temperature at 5 M by circular dichroism (CD) spectroscopy; type: nucleic-acid assay
Quadruplex DNA [12] = assay: Binding affinity to G-quadruplex telomeric DNA 26ceb (5'-duplex AAGGGTGGGTGTAAGTGTGGGTGGGT-3') (unknown origin) assessed as stabilization by measuring change in melting temperature at 0.5 M by circular dichroism (CD) spectroscopy; type: nucleic-acid assay
Quadruplex DNA [13] = assay: Binding affinity to G-quadruplex telomeric DNA 26ceb (5'-duplex AAGGGTGGGTGTAAGTGTGGGTGGGT-3') (unknown origin) assessed as stabilization by measuring change in melting temperature at 1 M by circular dichroism (CD) spectroscopy; type: nucleic-acid assay
Quadruplex DNA [14] = assay: Binding affinity to G-quadruplex telomeric DNA 26ceb (5'-duplex AAGGGTGGGTGTAAGTGTGGGTGGGT-3') (unknown origin) assessed as stabilization by measuring change in melting temperature at 3 M by circular dichroism (CD) spectroscopy; type: nucleic-acid assay
Quadruplex DNA [15] = assay: Binding affinity to G-quadruplex telomeric DNA 26ceb (5'-duplex AAGGGTGGGTGTAAGTGTGGGTGGGT-3') (unknown origin) assessed as stabilization by measuring change in melting temperature at 5 M by circular dichroism (CD) spectroscopy; type: nucleic-acid assay
NHDF = assay: (§1) Cytotoxicity against human NHDF cells assessed as cell viability at 10 uM after 48 hrs by MTT assay; type: toxicity, cell-based; settings: nhdf, 48 h, 10 µM
Quadruplex DNA [16] = assay: Binding affinity to G-quadruplex telomeric DNA FdxT (5'-duplex FAM-TATAGCTAT-PEG-TATAGCTATA-TAM-3') assessed as stabilization by measuring change in melting temperature at 5 uM by FRET melting assay; type: nucleic-acid assay
[17] = as §1; type: toxicity, cell-based; settings: NHDF cells, read-out: Activity

OCCNCc1ccc2ccc3ccc(CNCCO)nc3c2n1
ΔTm (Quadruplex DNA [1]): 1.2 °C | ΔTm (Quadruplex DNA [2]): 0.4 °C

CC(C)(C)OC(=O)NCCNCc1ccc2ccc3ccc(CNCCNC(=O)OC(C)(C)C)nc3c2n1
ΔTm (Quadruplex DNA [1]): 1.2 °C | ΔTm (Quadruplex DNA [2]): 0.9 °C

O=C1NCCOCCOCCNC(=O)c2ccc3ccc4ccc1nc4c3n2
ΔTm (Quadruplex DNA [1]): 0.5 °C | ΔTm (Quadruplex DNA [2]): 0.4 °C | Activity (A549): Active | Activity (NCI-H1299): Active

COc1ccc(NCc2ccc3ccc4ccc(CNc5ccc(OC)cc5)nc4c3n2)cc1
ΔTm (Quadruplex DNA [1]): 9.2 °C | ΔTm (Quadruplex DNA [3]): 4.1 °C | ΔTm (Quadruplex DNA [2]): 3.8 °C | ΔTm (Quadruplex DNA [4]): 0.5 °C | ΔTm (Quadruplex DNA [5]): 0.9 °C | ΔTm (Quadruplex DNA [6]): 1.5 °C | ΔTm (Quadruplex DNA [7]): 1.1 °C | ΔTm (Quadruplex DNA [8]): 0.9 °C | ΔTm (Quadruplex DNA [9]): 1.8 °C | ΔTm (Quadruplex DNA [10]): 2.6 °C | ΔTm (Quadruplex DNA [11]): 3.1 °C | ΔTm (Quadruplex DNA [12]): 1.1 °C | ΔTm (Quadruplex DNA [13]): 2.3 °C | ΔTm (Quadruplex DNA [14]): 5.9 °C | ΔTm (Quadruplex DNA [15]): 8.1 °C | Activity (NHDF): Toxic

C[n+]1cc(NC(=O)c2ccc3ccc4ccc(C(=O)Nc5cc6ccccc6[n+](C)c5)nc4c3n2)cc2ccccc21
ΔTm (Quadruplex DNA [1]): > 30 °C | ΔTm (Quadruplex DNA [3]): > 30 °C | ΔTm (Quadruplex DNA [2]): > 30 °C | ΔTm (Quadruplex DNA [16]): 0.6 °C

OCC/N=C/c1ccc2ccc3ccc(/C=N/CCO)nc3c2n1
ΔTm (Quadruplex DNA [1]): 1.1 °C | ΔTm (Quadruplex DNA [2]): 0.9 °C

CC(C)(C)OC(=O)NCC/N=C/c1ccc2ccc3ccc(/C=N/CCNC(=O)OC(C)(C)C)nc3c2n1
ΔTm (Quadruplex DNA [1]): 0.6 °C | ΔTm (Quadruplex DNA [2]): 0.6 °C

CCCCCC/N=C/c1ccc2ccc3ccc(/C=N/CCCCCC)nc3c2n1
ΔTm (Quadruplex DNA [1]): 1.1 °C | ΔTm (Quadruplex DNA [2]): 0.7 °C | Activity (NHDF): Non-Toxic

O=C(N/N=C/c1c(O)ccc2ccccc12)c1ccc2ccc3ccc(C(=O)N/N=C/c4c(O)ccc5ccccc45)nc3c2n1
ΔTm (Quadruplex DNA [1]): 1 °C | ΔTm (Quadruplex DNA [2]): 2.6 °C

NNC(=O)c1ccc2ccc3ccc(C(=O)NN)nc3c2n1
ΔTm (Quadruplex DNA [1]): 1.8 °C | ΔTm (Quadruplex DNA [2]): 1.2 °C | Activity (A549): Active | Activity (NCI-H1299): Active

NCCNC(=O)c1ccc2ccc3ccc(C(=O)NCCN)nc3c2n1
ΔTm (Quadruplex DNA [1]): 7.2 °C | ΔTm (Quadruplex DNA [3]): 2.9 °C | ΔTm (Quadruplex DNA [2]): 1.8 °C | ΔTm (Quadruplex DNA [4]): 0.5 °C | ΔTm (Quadruplex DNA [5]): 0.3 °C | ΔTm (Quadruplex DNA [6]): 2.5 °C | ΔTm (Quadruplex DNA [7]): 1.4 °C | ΔTm (Quadruplex DNA [8]): 0.4 °C | ΔTm (Quadruplex DNA [9]): 1.3 °C | ΔTm (Quadruplex DNA [10]): 2.9 °C | ΔTm (Quadruplex DNA [11]): 4.3 °C | ΔTm (Quadruplex DNA [12]): 3.4 °C | ΔTm (Quadruplex DNA [13]): 4.6 °C | ΔTm (Quadruplex DNA [14]): 9.7 °C | ΔTm (Quadruplex DNA [15]): 11.7 °C | viability at 10 µM (A549): 24.5% | Activity (NCI-H1299): Active | viability at 48 h, 10 µM [17]: 75.1%

CC(C)(C)OC(=O)NCCNC(=O)c1ccc2ccc3ccc(C(=O)NCCNC(=O)OC(C)(C)C)nc3c2n1
ΔTm (Quadruplex DNA [1]): 0.7 °C | ΔTm (Quadruplex DNA [2]): 0.8 °C | Activity (A549): Active | Activity (NCI-H1299): Active

CC/N=C/c1ccc2ccc3ccc(/C=N/CC)nc3c2n1
ΔTm (Quadruplex DNA [1]): 1.5 °C | ΔTm (Quadruplex DNA [2]): 1.2 °C

COc1ccc(/N=C/c2ccc3ccc4ccc(/C=N/c5ccc(OC)cc5)nc4c3n2)cc1
ΔTm (Quadruplex DNA [1]): 0.8 °C | ΔTm (Quadruplex DNA [2]): 0.7 °C

O=C1NCCNCCNC(=O)c2ccc3ccc4ccc1nc4c3n2
ΔTm (Quadruplex DNA [1]): 0.4 °C | ΔTm (Quadruplex DNA [2]): 1.7 °C | Activity (A549): Active | Activity (NCI-H1299): Active

NCCNCc1ccc2ccc3ccc(CNCCN)nc3c2n1.O=C(O)C(F)(F)F.O=C(O)C(F)(F)F.O=C(O)C(F)(F)F.O=C(O)C(F)(F)F
ΔTm (Quadruplex DNA [1]): 12 °C | ΔTm (Quadruplex DNA [3]): 5.2 °C | ΔTm (Quadruplex DNA [2]): 7.8 °C | ΔTm (Quadruplex DNA [4]): 0.7 °C | ΔTm (Quadruplex DNA [5]): 2.1 °C | ΔTm (Quadruplex DNA [6]): 3.4 °C | ΔTm (Quadruplex DNA [7]): 3.5 °C | ΔTm (Quadruplex DNA [8]): 0.6 °C | ΔTm (Quadruplex DNA [9]): 1.3 °C | ΔTm (Quadruplex DNA [10]): 1.9 °C | ΔTm (Quadruplex DNA [11]): 2.1 °C | ΔTm (Quadruplex DNA [12]): 0.9 °C | ΔTm (Quadruplex DNA [13]): 2.1 °C | ΔTm (Quadruplex DNA [14]): 5.4 °C | ΔTm (Quadruplex DNA [15]): 7.6 °C | Activity (NHDF): Toxic

CCCCCCNCc1ccc2ccc3ccc(CNCCCCCC)nc3c2n1
ΔTm (Quadruplex DNA [1]): 5.3 °C | viability at 10 µM (A549): 27.4% | viability at 10 µM (NCI-H1299; read-out: Activity): 42.9% | viability at 48 h, 10 µM [17]: 22.4%

Reference: ChEMBL document CHEMBL5214969, “Synthesis and evaluation of 2,9-disubstituted-1,10-phenanthroline derivatives as G-quadruplex binders” (Bioorg Med Chem, 2022)
